Values quoted from earlier work, collected in patent publication US20060189550A1, “Immunostimulatory, Covalently lipidated oligonucleotides” (Biomira Inc., priority 2002, published 2006).

Conditions: Table K-2, reference compounds; experimental database value from LogKow

Row | Structure (SMILES) | LogP Exp
1 | Cc1c[nH]c2ccccc12 [3-methyl indole] | 2.60
2 | CCSC [Ethane, (methylthio)-] | 1.54
3 | CCCCOC [methyl n-butyl ether] | 1.66
4 | O=c1ccc2cc3ccoc3cc2o1 [psoralen] | 1.67
